From patent publication US20260207578A1, “COMPOUND BASED ON SULFUR/OXYGEN SUBSTITUTED GLUTARIMIDE-BASED ISOINDOLINONE SKELETON AND USE THEREOF” (Gluetacs Therapeutics (Shanghai) Co., LTD., priority 2022, published 2026)

Key:
[1] = target: T1, human Cereblon WT GST-tagged protein (Homo sapiens, UniProt Q96SW2); assay: CRBN-binding affinity, HTRF (CEREBLON BINDING kit); conditions: displacement of Thalidomide-Re reagent, 3 hours at room temperature
T1 construct: purchased CISBIO 64BDCRBNPEH
Procedure, shortened: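 HTRF competition format: compound, GST-tagged wild-type human Cereblon, Thalidomide-Re tracer and GST Eu antibody were combined in PROTAC binding buffer. Binding was derived from emission at 620 nm relative to blank and solvent control wells.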

IKZF1 = target: T2, IKZF1 (Homo sapiens, UniProt Q13422+Q96SW2); assay: Western-blot assay, substrate protein in hPBMCs; assay type: cell-based; conditions: hPBMC cells, 24 hours, tested at 50 nM and 500 nM, table does not say which
T2 construct: endogenous in cells; host or cells: human PBMCs (Milecell Biotechnologies)
T2 sequence (Q13422 whole entry): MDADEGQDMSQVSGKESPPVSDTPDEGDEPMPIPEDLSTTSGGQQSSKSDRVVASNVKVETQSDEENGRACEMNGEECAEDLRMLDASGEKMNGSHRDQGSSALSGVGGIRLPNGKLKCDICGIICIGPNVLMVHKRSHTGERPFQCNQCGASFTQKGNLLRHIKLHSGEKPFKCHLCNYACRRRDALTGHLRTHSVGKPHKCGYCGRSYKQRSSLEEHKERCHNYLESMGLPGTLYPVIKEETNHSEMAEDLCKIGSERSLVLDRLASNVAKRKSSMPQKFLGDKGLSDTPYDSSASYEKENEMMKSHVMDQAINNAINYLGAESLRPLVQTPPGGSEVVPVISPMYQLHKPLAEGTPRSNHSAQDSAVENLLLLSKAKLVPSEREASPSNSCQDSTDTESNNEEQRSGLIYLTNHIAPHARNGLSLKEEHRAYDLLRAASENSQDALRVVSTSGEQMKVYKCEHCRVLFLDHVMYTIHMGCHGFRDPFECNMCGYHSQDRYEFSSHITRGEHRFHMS
T2 sequence (Q96SW2 whole entry): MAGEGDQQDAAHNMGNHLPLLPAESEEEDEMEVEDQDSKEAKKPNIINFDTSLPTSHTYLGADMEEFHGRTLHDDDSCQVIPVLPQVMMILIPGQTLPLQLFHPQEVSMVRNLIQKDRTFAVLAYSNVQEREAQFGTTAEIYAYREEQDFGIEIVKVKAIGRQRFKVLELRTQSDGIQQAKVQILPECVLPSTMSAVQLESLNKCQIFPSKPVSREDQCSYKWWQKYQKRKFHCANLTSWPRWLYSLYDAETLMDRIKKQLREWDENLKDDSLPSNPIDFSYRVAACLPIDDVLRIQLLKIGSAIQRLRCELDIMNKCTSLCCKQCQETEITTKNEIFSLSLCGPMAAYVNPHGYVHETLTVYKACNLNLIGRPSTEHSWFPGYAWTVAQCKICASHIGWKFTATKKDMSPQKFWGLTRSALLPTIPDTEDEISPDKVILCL
T2 sequence (Q16531 whole entry partner): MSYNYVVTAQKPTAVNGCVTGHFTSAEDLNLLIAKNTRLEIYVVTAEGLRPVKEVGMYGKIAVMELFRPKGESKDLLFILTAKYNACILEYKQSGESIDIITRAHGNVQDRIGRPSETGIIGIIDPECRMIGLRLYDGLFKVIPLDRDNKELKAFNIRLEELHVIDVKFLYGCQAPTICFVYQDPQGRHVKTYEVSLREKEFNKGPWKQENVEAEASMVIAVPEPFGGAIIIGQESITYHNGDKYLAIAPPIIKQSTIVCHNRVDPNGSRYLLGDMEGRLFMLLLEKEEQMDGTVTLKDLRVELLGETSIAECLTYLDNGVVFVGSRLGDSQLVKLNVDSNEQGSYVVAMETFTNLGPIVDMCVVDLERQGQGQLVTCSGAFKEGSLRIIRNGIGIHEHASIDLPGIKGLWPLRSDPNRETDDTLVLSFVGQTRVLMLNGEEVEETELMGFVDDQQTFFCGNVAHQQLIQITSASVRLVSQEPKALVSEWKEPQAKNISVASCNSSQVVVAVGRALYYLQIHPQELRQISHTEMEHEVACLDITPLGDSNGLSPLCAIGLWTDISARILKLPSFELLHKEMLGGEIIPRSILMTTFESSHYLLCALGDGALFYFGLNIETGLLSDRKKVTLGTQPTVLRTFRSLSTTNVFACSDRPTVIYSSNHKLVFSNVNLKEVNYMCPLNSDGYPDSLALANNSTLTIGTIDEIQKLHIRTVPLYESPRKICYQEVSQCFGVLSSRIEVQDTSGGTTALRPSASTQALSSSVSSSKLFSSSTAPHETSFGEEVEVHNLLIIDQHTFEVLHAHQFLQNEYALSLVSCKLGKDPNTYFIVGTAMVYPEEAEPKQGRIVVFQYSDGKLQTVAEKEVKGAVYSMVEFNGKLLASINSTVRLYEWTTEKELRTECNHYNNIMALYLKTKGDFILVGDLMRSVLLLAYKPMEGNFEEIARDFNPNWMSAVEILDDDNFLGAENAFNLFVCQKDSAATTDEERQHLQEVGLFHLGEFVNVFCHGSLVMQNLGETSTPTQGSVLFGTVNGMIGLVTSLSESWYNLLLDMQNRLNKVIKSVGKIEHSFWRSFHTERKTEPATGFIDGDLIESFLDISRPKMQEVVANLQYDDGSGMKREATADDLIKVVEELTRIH
Procedure, shortened: (§1)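 hPBMCs (1×10^6 cells/mL) exposed 24 h to compound at 50 nM and 500 nM, lysed, and probed by Western blot. Band grayscale normalized to internal control gives % protein remaining versus DMSO; DC50 from concentration-response fit at half DMSO band intensity.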

IKZF3 = target: T3, IKZF3 (Homo sapiens, UniProt Q96SW2+Q9UKT9); assay: Western-blot assay, substrate protein in hPBMCs; assay type: cell-based; conditions: hPBMC cells, 24 hours, tested at 50 nM and 500 nM, table does not say which
T3 construct: endogenous in cells; host or cells: human PBMCs (Milecell Biotechnologies)
T3 sequence (Q9UKT9 whole entry): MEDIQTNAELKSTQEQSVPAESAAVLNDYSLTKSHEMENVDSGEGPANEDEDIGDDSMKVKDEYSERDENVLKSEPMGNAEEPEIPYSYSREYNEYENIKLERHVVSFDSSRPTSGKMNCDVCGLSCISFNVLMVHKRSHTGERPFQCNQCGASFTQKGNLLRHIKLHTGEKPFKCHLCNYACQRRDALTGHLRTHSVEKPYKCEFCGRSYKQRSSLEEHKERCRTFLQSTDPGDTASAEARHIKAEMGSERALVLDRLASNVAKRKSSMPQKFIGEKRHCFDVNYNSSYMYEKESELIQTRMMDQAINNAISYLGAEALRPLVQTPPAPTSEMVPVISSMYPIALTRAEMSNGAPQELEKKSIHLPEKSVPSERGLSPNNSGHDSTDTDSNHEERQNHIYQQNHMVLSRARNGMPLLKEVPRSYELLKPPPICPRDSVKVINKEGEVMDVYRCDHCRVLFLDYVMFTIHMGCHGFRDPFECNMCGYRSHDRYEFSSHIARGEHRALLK
T3 sequence (Q96SW2 whole entry): as the sequence (Q96SW2 whole entry) above
T3 sequence (Q16531 whole entry partner): as the sequence (Q16531 whole entry partner) above
Procedure, shortened: as §1

IKZF2 = target: T4, IKZF2 (Homo sapiens, UniProt Q96SW2+Q9UKS7); assay: Western-blot assay, substrate protein in hPBMCs; assay type: cell-based; conditions: hPBMC cells, 24 hours, tested at 50 nM and 500 nM, table does not say which
T4 construct: endogenous in cells; host or cells: human PBMCs (Milecell Biotechnologies)
T4 sequence (Q9UKS7 whole entry): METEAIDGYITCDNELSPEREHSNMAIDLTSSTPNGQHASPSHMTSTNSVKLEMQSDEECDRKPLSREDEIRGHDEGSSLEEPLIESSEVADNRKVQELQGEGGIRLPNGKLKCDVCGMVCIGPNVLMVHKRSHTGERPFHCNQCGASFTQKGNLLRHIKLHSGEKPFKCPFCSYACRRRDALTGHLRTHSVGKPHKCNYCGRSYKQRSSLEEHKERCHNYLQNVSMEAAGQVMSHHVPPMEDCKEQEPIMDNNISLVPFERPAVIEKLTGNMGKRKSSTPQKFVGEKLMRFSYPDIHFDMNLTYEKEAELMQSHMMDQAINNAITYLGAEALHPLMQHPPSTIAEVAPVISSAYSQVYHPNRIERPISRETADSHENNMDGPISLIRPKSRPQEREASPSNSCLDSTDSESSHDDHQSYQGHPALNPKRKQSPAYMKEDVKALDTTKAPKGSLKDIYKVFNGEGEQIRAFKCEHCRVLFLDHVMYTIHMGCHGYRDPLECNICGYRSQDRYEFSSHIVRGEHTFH
T4 sequence (Q96SW2 whole entry): as the sequence (Q96SW2 whole entry) above
T4 sequence (Q16531 whole entry partner): as the sequence (Q16531 whole entry partner) above
Procedure, shortened: (§2)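 Steps: treat hPBMCs 24 h; lyse on ice in RIPA with phosphatase inhibitors; quantify protein by BCA; denature at 95 °C and blot. Remaining protein (%) is the target/internal-control band ratio, normalised; degradation rate is its complement.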

GSPT1 = target: T5, GSPT1 (Homo sapiens, UniProt P15170+Q96SW2); assay: Western-blot assay, substrate protein in hPBMCs; assay type: cell-based; conditions: hPBMC cells, 24 hours, tested at 50 nM and 500 nM, table does not say which
T5 construct: endogenous in cells; host or cells: human PBMCs (Milecell Biotechnologies)
T5 sequence (P15170 whole entry): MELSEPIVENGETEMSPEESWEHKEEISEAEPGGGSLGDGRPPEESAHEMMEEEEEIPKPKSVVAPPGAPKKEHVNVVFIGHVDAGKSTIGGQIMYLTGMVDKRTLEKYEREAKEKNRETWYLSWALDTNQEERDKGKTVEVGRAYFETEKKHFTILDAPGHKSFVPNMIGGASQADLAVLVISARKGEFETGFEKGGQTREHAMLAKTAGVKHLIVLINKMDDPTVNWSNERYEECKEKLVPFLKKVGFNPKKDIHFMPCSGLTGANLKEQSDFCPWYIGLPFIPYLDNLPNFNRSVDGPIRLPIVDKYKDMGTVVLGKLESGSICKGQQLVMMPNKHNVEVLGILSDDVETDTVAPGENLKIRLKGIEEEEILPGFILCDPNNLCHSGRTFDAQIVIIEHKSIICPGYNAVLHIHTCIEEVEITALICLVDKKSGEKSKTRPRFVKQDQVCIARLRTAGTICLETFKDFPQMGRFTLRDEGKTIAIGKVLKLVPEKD
T5 sequence (Q96SW2 whole entry): as the sequence (Q96SW2 whole entry) above
T5 sequence (Q16531 whole entry partner): as the sequence (Q16531 whole entry partner) above
Procedure, shortened: as §2

CK1α = target: T6, CK1α (Homo sapiens, UniProt P48729+Q96SW2); assay: Western-blot assay, substrate protein in hPBMCs; assay type: cell-based; conditions: hPBMC cells, 24 hours, tested at 50 nM and 500 nM, table does not say which
T6 construct: endogenous in cells; host or cells: human PBMCs (Milecell Biotechnologies)
Procedure, shortened: as §2

Wee1 = target: T7, Wee1 (Homo sapiens, UniProt P30291+Q96SW2); assay: Western-blot assay, substrate protein in hPBMCs; assay type: cell-based; conditions: hPBMC cells, 24 hours, tested at 50 nM and 500 nM, table does not say which
T7 construct: endogenous in cells; host or cells: human PBMCs (Milecell Biotechnologies)
T7 sequence (P30291 whole entry): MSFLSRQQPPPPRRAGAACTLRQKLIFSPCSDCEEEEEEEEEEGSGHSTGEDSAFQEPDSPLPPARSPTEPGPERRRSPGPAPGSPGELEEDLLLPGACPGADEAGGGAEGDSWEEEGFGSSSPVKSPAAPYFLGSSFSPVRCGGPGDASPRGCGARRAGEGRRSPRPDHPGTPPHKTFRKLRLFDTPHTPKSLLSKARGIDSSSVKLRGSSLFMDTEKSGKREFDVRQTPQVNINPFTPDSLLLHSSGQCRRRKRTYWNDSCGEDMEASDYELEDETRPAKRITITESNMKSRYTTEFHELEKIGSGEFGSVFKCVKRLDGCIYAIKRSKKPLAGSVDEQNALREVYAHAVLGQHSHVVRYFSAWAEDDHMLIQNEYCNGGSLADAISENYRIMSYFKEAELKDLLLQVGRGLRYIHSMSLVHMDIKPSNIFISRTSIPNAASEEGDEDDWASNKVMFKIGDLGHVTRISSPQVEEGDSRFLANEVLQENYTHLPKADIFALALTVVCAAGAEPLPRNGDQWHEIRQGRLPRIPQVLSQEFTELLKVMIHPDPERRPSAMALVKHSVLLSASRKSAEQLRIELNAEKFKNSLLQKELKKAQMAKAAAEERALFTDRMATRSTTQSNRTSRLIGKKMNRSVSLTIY
T7 sequence (Q96SW2 whole entry): as the sequence (Q96SW2 whole entry) above
T7 sequence (Q16531 whole entry partner): as the sequence (Q16531 whole entry partner) above
Procedure, shortened: as §2

T1 sequence (Q96SW2 whole entry): as the sequence (Q96SW2 whole entry) above

Structure (SMILES) | IC50 [1] | substrate protein remaining % (IKZF1) | substrate protein remaining % (IKZF3) | substrate protein remaining % (IKZF2) | substrate protein remaining % (GSPT1) | substrate protein remaining % (CK1α) | substrate protein remaining % (Wee1)
CC1(C)CCC(CN2CC(Sc3ccc4c(c3)CN(C3CCC(=O)NC3=O)C4=O)C2)=C(c2ccc(F)cc2)C1 (centres unmarked) [GT-03457, 3-(5-((1-((4′-fluoro-5,5-dimethyl-3,4,5,6-tetrahydro-[1,1′-biphenyl]-2-yl)methyl)azetidin-3-yl)thio)-1-oxoisoindolin-2-yl)piperidine-2,6-dione] | < 500 nM | A (0%≤ substrate protein remaining % ≤80%) | A (0%≤ substrate protein remaining % ≤80%) | A (0%≤ substrate protein remaining % ≤80%) | A (0%≤ substrate protein remaining % ≤80%) | A (0%≤ substrate protein remaining % ≤80%) | –
O=C1CCC(N2Cc3cc(SC4CN(C(c5cccc(F)c5)c5cccc(F)c5)C4)ccc3C2=O)C(=O)N1 (centres unmarked) [GT-06349, 3-(5-((1-(bis(3-fluorophenyl)methyl)azetidin-3-yl)thio)-1-oxoisoindolin-2-yl)piperidine-2,6-dione] | 500 to 1000 nM | A (0%≤ substrate protein remaining % ≤80%) | A (0%≤ substrate protein remaining % ≤80%) | A (0%≤ substrate protein remaining % ≤80%) | A (0%≤ substrate protein remaining % ≤80%) | A (0%≤ substrate protein remaining % ≤80%) | –
O=C1CCC(N2Cc3cc(OC4CN(Cc5cnc(-c6ccccc6)cn5)C4)ccc3C2=O)C(=O)N1 (centres unmarked) [GT-06353, 3-(1-oxo-5-((1-((5-phenylpyrazin-2-yl)methyl)azetidin-3-yl)oxy)isoindolin-2-yl)piperidine-2,6-dione] | 500 to 1000 nM | A (0%≤ substrate protein remaining % ≤80%) | A (0%≤ substrate protein remaining % ≤80%) | – | A (0%≤ substrate protein remaining % ≤80%) | A (0%≤ substrate protein remaining % ≤80%) | A (0%≤ substrate protein remaining % ≤80%)
O=C1CCC(N2Cc3cc(OC4CN(CC5=C(c6ccc(Cl)cc6)CCOC5)C4)ccc3C2=O)C(=O)N1 (centres unmarked) [GT-06354, 3-(5-((1-((4-(4-chlorophenyl)-5,6-dihydro-2H-pyran-3-yl)methyl)azetidin-3-yl)oxy)-1-oxoisoindolin-2-yl)piperidine-2,6-dione] | < 500 nM | A (0%≤ substrate protein remaining % ≤80%) | A (0%≤ substrate protein remaining % ≤80%) | – | A (0%≤ substrate protein remaining % ≤80%) | A (0%≤ substrate protein remaining % ≤80%) | A (0%≤ substrate protein remaining % ≤80%)
CC1(C)CC(c2ccc(Cl)cc2)=C(CN2CC(Sc3ccc4c(c3)CN(C3CCC(=O)NC3=O)C4=O)C2)CO1 (centres unmarked) [GT-06514, 3-(5-((1-((4-(4-chlorophenyl)-6,6-dimethyl-5,6-dihydro-2H-pyran-3-yl)methyl)azetidin-3-yl)thio)-1-oxoisoindolin-2-yl)piperidine-2,6-dione] | 500 to 1000 nM | A (0%≤ substrate protein remaining % ≤80%) | A (0%≤ substrate protein remaining % ≤80%) | A (0%≤ substrate protein remaining % ≤80%) | A (0%≤ substrate protein remaining % ≤80%) | – | A (0%≤ substrate protein remaining % ≤80%)
CC1(C)CCC(CN2CC(Sc3cccc4c3CN(C3CCC(=O)NC3=O)C4=O)C2)=C(c2ccc(Cl)cc2)C1 (centres unmarked) [GT-06515, 3-(4-((1-((4′-chloro-5,5-dimethyl-3,4,5,6-tetrahydro-[1,1′-biphenyl]-2-yl)methyl)azetidin-3-yl)thio)-1-oxoisoindolin-2-yl)piperidine-2,6-dione] | 500 to 1000 nM | A (0%≤ substrate protein remaining % ≤80%) | A (0%≤ substrate protein remaining % ≤80%) | – | A (0%≤ substrate protein remaining % ≤80%) | A (0%≤ substrate protein remaining % ≤80%) | A (0%≤ substrate protein remaining % ≤80%)
O=C1CCC(N2Cc3cc(SC4CN(C(c5ccccn5)c5ccccn5)C4)ccc3C2=O)C(=O)N1 (centres unmarked) [GT-06811, 3-(5-((1-(di(pyridin-2-yl)methyl)azetidin-3-yl)thio)-1-oxoisoindolin-2-yl)piperidine-2,6-dione] | < 500 nM | A (0%≤ substrate protein remaining % ≤80%) | A (0%≤ substrate protein remaining % ≤80%) | A (0%≤ substrate protein remaining % ≤80%) | A (0%≤ substrate protein remaining % ≤80%) | – | A (0%≤ substrate protein remaining % ≤80%)
O=C1CCC(N2Cc3cc(SC4CC5CN(C(c6ccccc6)c6ccccc6)CC5C4)ccc3C2=O)C(=O)N1 (centres unmarked) [GT-06922, 3-(5-((2-benzhydryloctahydro-cyclopenta[c]pyrrol-5-yl)thio)-1-oxoisoindolin-2-yl)piperidine-2,6-dione] | < 500 nM | A (0%≤ substrate protein remaining % ≤80%) | A (0%≤ substrate protein remaining % ≤80%) | – | A (0%≤ substrate protein remaining % ≤80%) | A (0%≤ substrate protein remaining % ≤80%) | A (0%≤ substrate protein remaining % ≤80%)
CC1(C)CCC(CN2CCC3(CC2)CC(Oc2ccc4c(c2)CN(C2CCC(=O)NC2=O)C4=O)C3)=C(c2ccc(Cl)cc2)C1 (centres unmarked) [GT-06933, 3-(5-((7-((4′-chloro-5,5-dimethyl-3,4,5,6-tetrahydro-[1,1′-biphenyl]-2-yl)methyl)-7-azaspiro[3.5]nonan-2-yl)oxy)-1-oxoisoindolin-2-yl)piperidine-2,6-dione] | 1000 to 1900 nM | A (0%≤ substrate protein remaining % ≤80%) | A (0%≤ substrate protein remaining % ≤80%) | A (0%≤ substrate protein remaining % ≤80%) | – | – | A (0%≤ substrate protein remaining % ≤80%)
